Entries after “also recorded” stand apart in the source; their conditions may differ. Ends that are not written are not given here. Peptide text beside a SMILES is read from it.
Legend:
[1] = test system: panel of 24 biotinylated chemokines; test: Phage-display screen of HD2 NNK saturation mutagenesis library; format: binding, human; details: for Chemokines Bound log2E 1-5 / Chemokines Bound log2E > 5: HD2 saturation mutants, chemokines on streptavidin beads, UniProt entry names
CXCL11 = biological target: T1, CXCL11 (Homo sapiens, UniProt O14625); test: CXCL11-induced activated T-cell migration, transwell assay; format: cell-based; details: HD2 mutant peptides 10 μM, chemokine at EC80
T1 construct: purchased Peprotech
T1 sequence (O14625 22-94): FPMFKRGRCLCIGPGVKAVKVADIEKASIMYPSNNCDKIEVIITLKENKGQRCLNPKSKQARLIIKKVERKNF
Description: FIG. 2. […] BK1.2 is described in (Darlot, 2020). […] Chemokines used are indicated by the name, followed in parenthesis by the supplier code (P in supplier code indicates Peprotech). […] All experiments were performed at EC80 doses of indicated chemokine. Data are shown as box-whisker plots of three technical and three biological replicates. Statistically significant differences (compared to control, indicated by #), using Dunnett's test with correction for multiple comparisons, are indicated by asterisks: ****=P≤0.0001, ***=P≤0.001, **=P≤0.01, *=P≤0.05.
Briefly, cell migration assays use THP1 cells (human monocyte) and primary human buffy coat white cells (consisting of neutrophil granulocytes, monocytes, and lymphocytes), and activated T-cells. THP1 cells and primary monocytes respond to CCL2, CCL3, CCL5, CCL8 and CXCL4, granulocytes to CXCL1 and CXCL8, activated T-cells to CXCL9/10/11. Assays are performed in 96-well Boyden chambers, and migrated cells counted and characterized using and ATTUNE Flow Cytometer as described. Triplicate assays are performed at the EC80 dose of each chemokine at 10 μM peptide concentration.
The J:CXCR1 cell line was generated by transfecting Jurkat cells by electroporation with PvuI-linearized plasmid D1398 and selecting with blasticidin (Sigma-Aldrich, Cat #203350, […]). […] J:CXCR1 cells were cultured in RPMI-1640 media (Gibco), supplemented with 10% FBS and 5 mM L-Glutamine with blasticidin. For J:CXCR1 migration assays, 300,000 cells/well were added to the top chamber of a 3 μm Transwell insert (Corning) in 50 μL of migration media (RPMI-1640, 0.5% FBS, 4 mM L-Glutamine, 0.05% DMSO). The bottom chamber contained 150 μL of chemokine, with or without peptide. Cells were migrated at 37° C. in 5% CO2 for 4 hours. The plate was incubated on a shaking platform for 10 minutes, 800 rpm, at 37° C., and 150 μL from the bottom of the plate transferred into a U-bottom plate containing 50 μL of migration media. Cell counts were determined by Attune NxT Flow Cytometer Plate Reader (ThermoFisher), based on cell size parameters FSC-H/SSC-H. Experiments were performed in 3 technical and 3 biological replicates. THP-1 migration assays were carried out using methods known in the art. Activated T-cell assays were carried out using methods known in the art, with the following modifications in the isolation process. Peripheral blood cells were obtained from leucocyte cones (NHS Blood Transfusion Services), following which, T-cells were isolated using two rounds of human CD8+ T-cell isolation kit (480011, BioLegend). At day 10 after activation, T-cells were frozen at 20 E6 cells/ml in TexMACS medium supplemented with 10% DMSO (D2650, Sigma) in liquid nitrogen. Prior to use, activated T-cells were recovered for 24 hours in TexMACs medium at 0.3 E6 cells/ml and incubated at 37° C. in 5% CO2. Chemokine sources are described in Supplementary information Table 3. Statistical significances between control experimental groups was evaluated using Dunnett's test. IC50 experiments were performed at the EC80 dose of chemokine. EC80 was calculated by fitting a chemokine dose-response curve with 3 parameters (fixing the top to 100%). IC50 was calculated by fitting an inhibitor response curve with 4 parameters.

Molecule | Chemokines Bound log2E 1-5 [1] | Chemokines Bound log2E > 5 [1] | peak log 2 E ([1]; best mutation at each residue) | chemotaxis compared with the parental HD2 peptide (CXCL11) | mean log 2 E compared to parental HD2 ([1]; over XC (CXC/CX3C) chemokines) | mean log 2 E compared to parental HD2 ([1]; over all chemokines)
CC(C)C[C@H](NC(=O)[C@@H]1CCCN1C(=O)[C@H](C)NC(=O)[C@H](Cc1ccc(O)cc1)NC(=O)[C@H](C)NC(=O)[C@@H](NC(=O)[C@H](Cc1ccc(O)cc1)NC(=O)[C@H](CC(=O)O)NC(=O)[C@H](CC(=O)O)NC(=O)[C@H](CCC(=O)O)NC(=O)[C@@H](N)CCC(=O)O)[C@@H](C)O)C(=O)N[C@H](C(=O)N[C@@H](CS)C(=O)N[C@@H](Cc1ccc(O)cc1)C(=O)N[C@@H](Cc1ccccc1)C(=O)N[C@@H](CS)C(N)=O)[C@@H](C)O [HD2_C16, EEDDYTAYAPLTCYFC] (H-EEDDYTAYAPLTCYFC-NH2; N-terminus assumed) | CCL1, X3CL1, CXL10, CXL11,; also recorded: CXL14 | IL8 | highest peak log 2 E at that residue | significant reduction in chemotaxis | – | –
EEDDWTAYAPLTCYFT-NH2 [HD2_W5, EEDDWTAYAPLTCYFT] | CCL1, CCL11, CCL15, CCL17,; also recorded: CCL18, CCL19, CCL2, CCL22,; also recorded: CCL28, CCL3, CCL4, X3CL1,; also recorded: CXL11, SDF1, IL8 | CXL10, CXL13 | – | significant reduction in chemotaxis | significant improvement | significant improvement
EEDDYTAYWPLTCYFT [A9W] | – | – | – | significant reduction in chemotaxis | – | –
EEDDYWAYAPLTCYFT [HD2_W6] | CCL1, CCL17, CCL18, CCL2,; also recorded: CCL20, CCL3, CCL4, IL8 | CCL19, CCL25,; also recorded: CCL28, X3CL1,; also recorded: CXL10, CXL11,; also recorded: SDF1, CXL13,; also recorded: CXL14 | – | significant reduction in chemotaxis | significant improvement | –
